Experimental data as given in paper PMC7504735, “Enhanced Antigiardial Effect of Omeprazole Analog Benzimidazole Compounds” (Molecules, 2020).

Key:
[1] = target: T1, triosephosphate isomerase (TPI) (Giardia intestinalis, UniProt P36186); assay: Second-order inactivation constant (k2) of TPI; type: biochemical, Giardia lamblia; conditions: read-out: Second-order inactivation constant k2
T1 construct: His-tag (TEV-cleavable) (cleaved yes); made in house
Description: Enzyme activity of TPI was determined spectrophotometrically as described by monitoring the conversion of glyceraldehyde-3-phosphate (GAP) to dihydroxyacetone phosphate (DHAP). Briefly, the conversion of GAP to DHAP using a coupling system with enzyme α-glycerol-3-phosphate dehydrogenase (α-GDH) was determinate by measuring NADH oxidation at 340 nm, at 25 °C. The standard reaction mixture contained 1 mM GAP, 0.2 mM NADH, and 0.9 units/mL of α-GDH in TE buffer (100 mM triethanolamine, 10 mM EDTA, pH 7.4). The reaction was initiated by adding 5 ng/mL of TPI to the reaction mixture.
To determine the inactivation of the TPI enzyme from G. lamblia, we performed inactivation assays of the enzyme in the presence of the synthesized compounds. The compounds’ stock solutions were freshly prepared using 100% dimethyl sulfoxide (DMSO) as the solvent at 25 mM. The inactivation assays were performed by incubating 0.2 mg/mL of the TPI enzyme for 2 h at 37 °C in TE buffer with increasing concentrations of the compounds (0 to 500 μM). […] After the incubation period, the enzymatic activity was measured by withdrawing an aliquot of each experimental condition, as described above. The results were expressed in terms of the percentage of activity versus the compound’s concentration.
The second-order rate constants of inactivation were calculated by obtaining the pseudo-first-order rate constant (k1) values at each fixed concentration by fitting them to an exponential decay curve. Then, the k1 values were replotted against the concentrations of each compound; the second-order rate constant value of inactivation was obtained from the slope of these plots.

[2] = target: T1, triosephosphate isomerase (TPI); assay: Thermal stability of TPI by circular dichroism at 222 nm; conditions: for Tm of TPI enzyme incubated with compound: compound at its IC50 concentration, 2 h at 37 °C, TPI free of treatment 60.6 °C
Description: All spectroscopic assays were carried out at a protein concentration of 0.2 mg/mL. Changes in the secondary structure of proteins were monitored by circular dichroism (CD) in a Jasco-810 spectropolarimeter containing a thermostated Peltier-controlled cell holder. For CD experiments, the enzyme was suspended in 50 mM phosphate buffer (buffer P), pH 7.4, and incubated with the four synthesized compounds by 2 h at 37 °C. Spectral scans from 190 to 280 nm at 0.1 nm intervals were performed at 25 °C using a quartz cell with 0.1 cm path length. All CD data were reported as molar ellipticity. In addition, the thermostability of modified TPI enzyme in the absence or presence of each of the synthesized compounds was evaluated, recording the loss of CD signal at 222 nm during a temperature scan ranging from 25 to 75 °C and an increase of 1 °C/2.5 min. The unfolded fraction of enzyme and melting temperature (Tm) was determined as reported before. The experiments were performed in triplicate.

[3] = target: T1, triosephosphate isomerase (TPI); assay: Intrinsic fluorescence of TPI; conditions: for Decrease of maximum intrinsic fluorescence intensity of TPI: compared to the TPI enzyme free of compounds; for Maximum intrinsic fluorescence intensity of TPI: compound at IC50 concentration, TPI without inhibitors 161 a.u. at 330 nm
Description: Changes in tertiary structure were analyzed following the intrinsic and extrinsic fluorescence of the TPI enzyme in a Perkin-Elmer LS-55 spectrofluorometer (Perkin-Elmer, Wellesley, MA, USA). The TPI protein was adjusted at 0.1 mg/mL in 50 mM phosphate buffer (buffer P), pH 7.4n, and incubated with the four synthesized compounds by 2 h at 37 °C. After the TPI protein was incubated with the synthesized compounds, the samples were excited at 280 nm and we recorded the emission spectra from 300 to 500 nm with a scan speed of 150 nm/min and using excitation and emission slits of 5 and 4 nm, respectively. Furthermore, we determined the extrinsic fluorescence of the TPI enzyme in the presence of the four compounds by 8-anilinonaphthalene-1-sulfonic acid (ANS) assay to monitor changes in the hydrophobic regions of the protein. The protein was incubated in the same conditions as the intrinsic fluorescence assay. Then, we recorded the fluorescence spectra from 400 to 600 nm in the presence of 25 mM of ANS dissolved in methanol at 25 °C with a scanning rate of 150 nm/min. The samples were excited to 395 nm using slits of excitation and emission of 10 nm, respectively. The final spectrum was the average of five scans. Later, each spectrum was subtracted from the spectra of the blank (buffer P solution containing each of the compounds plus ANS).

T1 sequence (P36186 whole entry): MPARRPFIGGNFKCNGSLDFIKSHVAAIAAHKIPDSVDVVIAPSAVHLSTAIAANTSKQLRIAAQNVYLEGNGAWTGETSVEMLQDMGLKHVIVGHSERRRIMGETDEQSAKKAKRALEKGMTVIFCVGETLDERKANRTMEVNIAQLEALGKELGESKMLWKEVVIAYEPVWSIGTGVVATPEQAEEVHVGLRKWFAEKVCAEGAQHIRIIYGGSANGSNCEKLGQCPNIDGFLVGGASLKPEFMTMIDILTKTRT

SMILES	kinact/KI [1] [M⁻¹ s⁻¹]	Tm of TPI enzyme incubated with compound [2] [°C]	Decrease of maximum intrinsic fluorescence intensity of TPI [3] [%]	Maximum intrinsic fluorescence intensity of TPI [3] [a.u.]	Loss in thermal stability of TPI ([2]; versus TPI free of treatment) [°C]
COc1c(C)cnc(C[S+]([O-])c2nc3ccccc3[nH]2)c1C (centres unmarked) [H-BZM2, 2-[(4-methoxy-3,5-dimethylpyridin-2-yl)methanesulfinyl]-1H-benzimidazole]	2.3	59.9	75	40.1	–
Cc1c(OCC(F)(F)F)ccnc1C[S+]([O-])c1nc2ccccc2[nH]1 (centres unmarked) [Lansoprazole, 2-{[3-methyl-4-(2,2,2-trifluoroethoxy)pyridin-2-yl]methanesulfinyl}-1H-benzimidazole, reference compound]	1.78	60.2	25	123	–
O=[N+]([O-])c1ccc2nc([S+]([O-])Cc3ccccn3)[nH]c2c1 (centres unmarked) [O2N-BZM7, 5-nitro-2-[(pyridin-2-yl)methanesulfinyl]-1H-benzimidazole]	3.2	57.5	33	107	3
Cc1c(OCC(F)(F)F)ccnc1C[S+]([O-])c1nc2ccc([N+](=O)[O-])cc2[nH]1 (centres unmarked) [O2N-BZM9, 2-{[3-methyl-4-(2,2,2-trifluoroethoxy)pyridin-2-yl]methanesulfinyl}-5-nitro-1H-benzimidazole]	2.8	58.4	55	72.6	–
